≈ marks a conversion by molar mass, not a printed value. Residues, ends and D or L forms follow the SMILES beside them.
Legend:
[1] = tested on: all gram-positive bacterial strains; assay: Mean MIC and therapeutic index, gram-positive strains; type: cell-based; settings: four gram-positive strains
Experimental: (§1) The minimal inhibitory concentrations (MICs) of peptide derivatives versus planktonic bacteria were assessed using a modification of the broth microdilution assay previously described in the National Committee for Clinical Laboratory Standards (NCCLS). In brief, bacteria at mid-logarithmic growth were collected by centrifugation at 2,500 × g for 5 min. Subsequently, the pellet was resuspended and adjusted in Mueller-Hinton Broth (MHB; BD Bacto™, USA) to an OD620 of 0.05. Fifty µL of bacterial suspensions was transferred to 96-well microplates. Later, 50 µL of peptide derivatives at 0.98–250 µg/mL in 10 mM PBS, was added to wells and incubated for 24 h at 37°C with continuous shaking at 220 rpm. […] The experiments were done in three technical replicates and repeated independently.
(§2) The therapeutic index (TI) is widely used for evaluating a peptide’s efficacy and safety. It is the ratio between the minimum hemolytic concentration (MHC, the concentration causing 10% hemolysis) and the geometric mean (GM) value of the MIC [15]. […] While, both lysine-substituted peptides (BiF2_7K and BiF2_5K7K) had higher TIs against all tested biofilm-forming bacteria than did the two parent peptides, and the TI of BiF2_5K7K was higher than that of BiF2_7K.

biofilm-forming bacteria = assay: Antibacterial activity against the panel of planktonic biofilm-forming bacteria; type: cell-based
Experimental: The biofilm-forming bacteria, including S. epidermidis ATCC 35984, Staphylococcus aureus ATCC 25923, Bacillus cereus ATCC 11778, Listeria monocytogenes 10403s, Pseudomonas aeruginosa ATCC 27853, Salmonella Typhimurium ATCC 13311, Escherichia coli ATCC 25922 and Acinetobacter baumanii MT strain, were used. All bacterial strains were grown on tryptic soy agar (TSA; BD Bacto™, USA) except E. coli and L. monocytogenes which were cultured on Luria agar (LA) and TSA supplemented with 0.6% Yeast Extract (TSAYE), respectively, at 37°C overnight. Subsequently, isolated colonies were inoculated and cultured in 5 mL of tryptic soy broth (TSB; BD Bacto™, USA), Luria Broth (LB), or TSB supplemented with 0.6% Yeast Extract (TSBYE) at 37°C for 16–18 h.
The minimal inhibitory concentrations (MICs) of peptide derivatives versus planktonic bacteria were assessed using a modification of the broth microdilution assay previously described in the National Committee for Clinical Laboratory Standards (NCCLS). In brief, bacteria at mid-logarithmic growth were collected by centrifugation at 2,500 × g for 5 min. Subsequently, the pellet was resuspended and adjusted in Mueller-Hinton Broth (MHB; BD Bacto™, USA) to an OD620 of 0.05. Fifty µL of bacterial suspensions was transferred to 96-well microplates. […]

[2] = tested on: human red blood cells (hRBCs); assay: Hemolysis activity (hemoglobin release); type: cell-based; settings: 1 h, 37°C
Experimental: The effect of peptides on human red blood cells (hRBCs) was assessed by observing the release of hemoglobin upon treated with peptide. Briefly, the hRBCs were obtained from healthy volunteers and subsequently diluted in 10 mM PBS to a concentration of 2% hRBCs. An equal volume of 2% hRBCs and peptide at concentration of 0.98–250 µg/mL in 10 mM PBS mixtures were incubated for 1 h at 37°C. Following incubation, the suspension was centrifuged, then supernatants were collected and transferred to 96-well microplates for measurement of absorbance at OD of 405 nm (OD405). This study was performed in accordance with the Thammasat University Ethics Committee (COA No. 066/2562). Written informed consent was obtained from all volunteers.

[3] = tested on: Staphylococcus epidermidis ATCC 35984; assay: Broth microdilution MIC / MBC; type: cell-based; settings: 24 h, 37°C; for MIC: broth microdilution, MHB, 0.98-250 µg/mL, visible inspection; for MBC: plating of non-turbid wells on TSA
Experimental: as §1
(§3) To determine minimal bactericidal concentrations (MBCs) of the peptides, 50 µL of supernatant from non-turbid wells was plated on TSA, and the number of colony-forming units (CFUs) was observed after 24 h of incubation at 37°C. MBC was defined as the minimum concentration of peptide at which no bacterial colony was observed on the plate.

[4] = tested on: Acinetobacter baumanii MT strain; assay: Broth microdilution MIC / MBC; type: cell-based; settings: 24 h, 37°C; for MIC: broth microdilution, MHB, 0.98-250 µg/mL, visible inspection; for MBC: plating of non-turbid wells on TSA
Experimental: as §1, §3

[5] = tested on: Escherichia coli ATCC 25922; assay: Broth microdilution MIC / MBC; type: cell-based; settings: 24 h, 37°C; for MBC: plating of non-turbid wells on TSA
Experimental: as §1, §3

[6] = tested on: Salmonella Typhimurium ATCC 13311; assay: Broth microdilution MIC / MBC; type: cell-based; settings: 24 h, 37°C; for MIC: broth microdilution, MHB, 0.98-250 µg/mL, visible inspection; for MBC: plating of non-turbid wells on TSA
Experimental: as §1, §3

[7] = tested on: Bacillus cereus ATCC 11778; assay: Broth microdilution MIC / MBC; type: cell-based; settings: 24 h, 37°C; for MIC: broth microdilution, MHB, 0.98-250 µg/mL, visible inspection; for MBC: plating of non-turbid wells on TSA
Experimental: as §1, §3

[8] = tested on: Pseudomonas aeruginosa ATCC 27853; assay: Broth microdilution MIC / MBC; type: cell-based; settings: 24 h, 37°C; for MIC: broth microdilution, MHB, 0.98-250 µg/mL, visible inspection; for MBC: plating of non-turbid wells on TSA
Experimental: as §1, §3

[9] = tested on: Listeria monocytogenes 10403s; assay: Broth microdilution MIC / MBC; type: cell-based; settings: 24 h, 37°C; for MIC: broth microdilution, MHB, 0.98-250 µg/mL, visible inspection; for MBC: plating of non-turbid wells on TSA
Experimental: as §1, §3

[10] = tested on: Staphylococcus aureus ATCC 25923; assay: Broth microdilution MIC / MBC; type: cell-based; settings: 24 h, 37°C
Experimental: as §1, §3

[11] = tested on: all gram-negative bacterial strains; assay: Mean MIC and therapeutic index, gram-negative strains; type: cell-based; settings: four gram-negative strains
Experimental: as §1, §2

[12] = tested on: S. epidermidis (ATCC 35984) biofilm; assay: Biofilm-formation inhibitory activity, crystal violet staining; type: cell-based, Staphylococcus epidermidis; settings: CV staining, TSB, 10^6 CFU/mL, 24 h, 37°C, 0.98-250 µg/mL; for MBIC50: minimum concentration inhibiting biofilm formation more than 50%; for MBIC90: minimum concentration inhibiting biofilm formation more than 90%
Experimental: The biofilm inhibitory activity of peptide derivatives was assessed by modified crystal violet (CV) staining. Briefly, the pellet of S. epidermidis (ATCC 35984) was collected through centrifugation of bacterial suspensions grown overnight at 2,500 × g for 5 min. Subsequently, the pellet was resuspended and diluted with TSB to a final concentration of 10^6 CFU/mL. Then, 50 µL of these diluted suspensions was transferred to 96-well microplates containing same volume of peptide derivatives in 10 mM phosphate buffer saline (PBS; Caisson Labs, USA), with concentrations ranging from 0.98 to 250 µg/mL. Vancomycin was used as positive control while TSB medium without bacteria was used as negative control. After 24 h of incubation and reaching static growth at 37°C, culture media as well as planktonic cells were removed, then the biofilm in each well was washed thrice with 0.85% NaCl. For CV staining, biofilms were fixed with 95% ethanol and stained with a 0.1% (v/v) CV solution for 15 min. After removal of excess dye, each well was washed thrice with 0.85% NaCl and resuspended in 95% ethanol to dissolve bound dye. Absorbance was determined at 570 nm using a Multiskan SkyHigh microplate reader (Thermo Scientific™, Singapore). All experiments were done in six technical replicates and repeated independently three times. Minimum biofilm inhibitory concentrations at 50% and 90% (MBIC50 and MBIC90) refers to concentrations of the peptide at which the inhibition of biofilm was at least 50% and 90%, respectively.

[13] = tested on: human lung fibroblast MRC-5 cell lines (ATCC CCL-171); assay: MTT cytotoxicity assay; type: cell-based; settings: MRC-5, 24 h
Experimental: The toxicity of peptide BiF2_5K7K against human lung fibroblast MRC-5 cell lines (ATCC CCL-171) was investigated by MTT colorimetric assay. Briefly, MRC-5 cells were cultured in Minimum Essential Medium [MEM; supplemented with 10% heat-inactivated FBS and 1% Penicillin-Streptomycin] in 5% CO2 at 37°C. Following an overnight incubation, MRC-5 cells were diluted to 10,000 cells/well and placed in 96-well microplates. Subsequently, they were exposed to BiF2_5K7K at 0.98 to 250 µg/mL. After incubation for 24 h, MTT solution (0.4 mg/mL) was added to each well and incubated for an additional 3 h under 5% CO2 at 37°C. The supernatant was then removed and 100 µL DMSO added, and absorbance was measured at 570 nm using a microplate reader.

[14] = broth microdilution, MHB, 0.98-250 µg/mL, visible inspection

Structure (SMILES)	GM +, geometric mean of MIC values from all gram-positive bacterial strains [1] [µg/mL]	MIC [3] [µg/mL]	MBC [3] [µg/mL]	MIC [4] [µg/mL]	MBC [4] [µg/mL]	MBC [5] [µg/mL]	MIC [6] [µg/mL]	MBC [6] [µg/mL]	MIC [7] [µg/mL]	MBC [7] [µg/mL]	MIC [8] [µg/mL]	MBC [8] [µg/mL]	MIC [9] [µg/mL]	MBC [9] [µg/mL]	GM-, geometric mean of MIC values from all gram-negative bacterial strains [11] [µg/mL]	MBIC50 [12] [µg/mL]	MBIC90 [12] [µg/mL]	other results
CC[C@H](C)[C@H](NC(=O)[C@H](CC(C)C)NC(=O)[C@H](CCCCN)NC(=O)[C@@H](NC(=O)[C@H](CC(C)C)NC(=O)[C@@H](N)Cc1ccccc1)C(C)C)C(=O)N[C@@H](CC(C)C)C(N)=O [BiF] (H-FLVKLIL-NH2; N-terminus assumed)	>250	> 250	> 250	> 250	> 250	> 250	> 250	> 250	> 250	> 250	> 250	> 250	> 250	> 250	>250	125	>250	antibacterial activity against target bacteria (biofilm-forming bacteria): no antibacterial activity; hRBCs lysed (hemolysis) ([2]; at 31.25 µg/mL): more than 20%; hemolytic activity ([2]; at 250 µg/mL (maximum concentration tested)): 100%; MHC, minimum hemolytic concentration ([2]; peptide concentration causing 10% hemolysis of hRBCs, 2% hRBCs in 10 mM PBS, OD405): 15.63 µg/mL; MIC [5, 14]: > 250 µg/mL; MIC [10, 14]: > 250 µg/mL; MBC ([10]; plating of non-turbid wells on TSA): > 250 µg/mL
CC[C@H](C)[C@H](NC(=O)CN)C(=O)NCC(=O)N[C@@H](C)C(=O)N[C@H](C(=O)N[C@@H](CC(C)C)C(=O)N[C@@H](CCCCN)C(=O)N[C@H](C(=O)N[C@@H](CC(C)C)C(=O)N[C@H](C(=O)N[C@H](C(=O)NCC(=O)N[C@@H](CC(C)C)C(=O)N1CCC[C@H]1C(=O)N[C@@H](C)C(=O)N[C@@H](CC(C)C)C(=O)N[C@H](C(=O)N[C@@H](CO)C(=O)N[C@@H](Cc1c[nH]c2ccccc12)C(=O)N[C@H](C(=O)N[C@@H](CCCCN)C(=O)N[C@@H](CCCNC(=N)N)C(=O)N[C@@H](CCCCN)C(=O)N[C@@H](CCCNC(=N)N)C(=O)N[C@@H](CCC(N)=O)C(=O)N[C@@H](CCC(N)=O)C(N)=O)[C@@H](C)CC)[C@@H](C)CC)[C@@H](C)O)[C@@H](C)O)C(C)C)C(C)C [Melittin, melittin, reference compound]	6.84	15.6 (≈ 5.49 µM)	15.6 (≈ 5.49 µM)	7.81 (≈ 2.74 µM)	7.81 (≈ 2.74 µM)	31.2 (≈ 11 µM)	3.91 (≈ 1.37 µM)	3.91 (≈ 1.37 µM)	3.91 (≈ 1.37 µM)	3.91 (≈ 1.37 µM)	15.6 (≈ 5.49 µM)	15.6 (≈ 5.49 µM)	3.91 (≈ 1.37 µM)	3.91 (≈ 1.37 µM)	14.65	–	–	lysis of hRBCs ([2]; at 3.91 µg/mL): completely lysed; cytotoxic effect [13]: strong dose-dependent cytotoxic effect
CN[C@H](CC(C)C)C(=O)N[C@H]1C(=O)N[C@@H](CC(N)=O)C(=O)N[C@H]2C(=O)N[C@H]3C(=O)N[C@H](C(=O)N[C@H](C(=O)O)c4cc(O)cc(O)c4-c4cc3ccc4O)[C@H](O)c3ccc(c(Cl)c3)Oc3cc2cc(c3O[C@@H]2O[C@H](CO)[C@@H](O)[C@H](O)[C@H]2O[C@H]2C[C@](C)(N)[C@H](O)[C@H](C)O2)Oc2ccc(cc2Cl)[C@H]1O [vancomycin, reference compound]	–	–	–	–	–	–	–	–	–	–	–	–	–	–	–	3.91	3.91	–

Reference: paper PMC11100219, “Dual-function antimicrobial-antibiofilm peptide hybrid to tackle biofilm-forming Staphylococcus epidermidis” (Annals of Clinical Microbiology and Antimicrobials, 2024)
